Here are results for one compound from patent publication US20240209011A1, “HETEROAROMATIC PHOSPHONIUM SALTS FOR TREATING CANCER” (FLORATEK PHARMA S.A., priority 2021, published 2024).

Type in all cases: cell-based
One assay relates to leukaemia cell. Put plainly: Activity against leukaemia cells. To be noted: leukaemia cell growth; Tables 13A and 13B. As to the method: (§1) Antitumor activity of the compounds and doxorubicin as a positive control was assessed by using the CellTiter-Blue Cell Viability Assay (Promega, #G8082) or CellTiter-Glow® Luminescent Cell Viability assay (Promega #G7572) according to the manufacturer's instructions. The compounds were tested at 5 or 6 concentrations in half-log increments (highest concentration 30 μM or 100 μM) in duplicate or triplicate well conditions.
(§2) Tumor cells were grown at 37° C. in a humidified atmosphere with 5% CO2 in RPMI 1640 or DMEM medium, supplemented with 10% (v/v) fetal calf serum and 50 μg/ml gentamicin for up to 20 passages, and were passaged once or twice weekly. Cells were harvested using TrypLE or PBS buffer containing 1 mM EDTA, and the percentage of viable cells is determined using a CASY Model TI cell counter (OMNI Life Science). Cells were harvested from exponential phase cultures, counted and plated in 96 well flat-bottom microtiter plates at a cell density depending on the cell line's growth rate (4,000-20,000 cells/well depending on the cell line's growth rate, up to 60,000 for hematological cancer cell lines) in RPMI 1640 or DMEM medium supplemented with 10% (v/v) fetal calf serum and 50 μg/ml gentamicin (140 μl/well). Cultures were incubated at 37° C. and 5% CO2 in a humidified atmosphere. After 24 h, 10 μl of test compounds or control medium were added, and left on the cells for another 72 h. Compounds were serially diluted in DMSO, transferred in cell culture medium, and added to the assay plates. The DMSO concentration was kept constant at <0.3% v/v across the assay plate. Viability of cells was quantified by the CellTiter-Blue® cell viability assay (Promega G8081) or CellTiter-Glow® Luminescent Cell Viability assay (Promega #G7572). Fluorescence (FU) was measured by using the EnSpire® multimode plate reader (Perkin Elmer) (excitation X=570 nm, emission λ=600 nm). Luminescence was measured with a microplate luminometer (Promega or PerkinElmer).
(§3) Sigmoidal concentration-response curves were fitted to the data points (test-versus-control, T/C values) obtained for each tumor model using 4 parameter non-linear curve fit (Charles River DRS Datawarehouse Software) or with GraphPad prism 5.02 software. IC50 values are reported as absolute IC50 values, being the concentration of test compound at the intersection of the concentration-response curves with T/C=50% Cell lines tested are presented in Table 1.

The test system of another assay is LoVo. Kind of assay: Cell viability assay (CellTiter-Blue/CellTiter-Glow). The conditions noted are these: Homo sapiens; colon carcinoma cell line LoVo; absolute IC50; 72 h. As to the method:
as §1, §2, §3

For the next assay, the system named is 22Rv1. The assay is described as above. To be noted: Homo sapiens; prostate carcinoma cell line 22Rv1; absolute IC50; 72 h. The method, then:
as §1, §2, §3

Another assay concerns LNCaP. The assay is described as above. To be noted: Homo sapiens; prostate carcinoma cell line LNCaP; absolute IC50; 72 h. The method, then:
as §1, §2, §3

Another assay concerns MDA-MB-468. The assay is described as above. The conditions noted are these: Homo sapiens; breast carcinoma cell line MDA-MB-468; absolute IC50; 72 h. The method, then: as §1, §2, §3
For another assay, the system named is MCF-7. The assay is described as above. The conditions noted are these: Homo sapiens, MCF7; breast carcinoma cell line MCF-7; absolute IC50; 72 h. The method, then: as §1, §2, §3
In another assay the test system is HL-60. The description is as above. To be noted: Homo sapiens; leukaemia cell line HL-60; absolute IC50; 72 h. The method, then:
as §1, §2, §3

The test system of another assay is HCT-116. The description is as above. To be noted: Homo sapiens; colon carcinoma cell line HCT-116; absolute IC50; 72 h. The method, then:
as §1, §2, §3

In another assay the test system is PC-3. The assay is described as above. The conditions noted are these: Homo sapiens; prostate carcinoma cell line PC-3; absolute IC50; 72 h. The method, then:
as §1, §2, §3

A further assay concerns parental H69 cells. Described as above. To be noted: Homo sapiens, NCI-H69; SCLC parental H69 cells. As to the method:
as §1, §2, §3

The test system of the next assay is colon cancer cell. Put plainly: Activity against colon cancer cells. The conditions noted are these: colon cancer cell growth; summary of Tables 7A-7D. The method, then: as §1, §2, §3
Another assay concerns breast cancer cell. Kind of assay: Activity against breast cancer cells. The conditions noted are these: breast cancer cell growth; Tables 5A and B. As to the method: as §1, §2, §3
A further assay concerns prostate cancer cell. Kind of assay: Activity against prostate cancer cells. To be noted: prostate cancer cell growth; text summary of Table 21. As to the method:
as §1, §2, §3

Some results are limits rather than exact numbers.

One may read the IC50 as the concentration at which inhibition is half-maximal.

Consider `O=c1cc(-c2ccc(CCC[P+](c3ccccc3)(c3ccccc3)c3ccccc3)cc2)oc2c(O)c(O)ccc12` [SND176, (3-(4-(7,8-Dihydroxy-4-oxo-4H-chromen-2-yl)phenyl)propyl)triphenylphosphonium bromide], for which the IC50 in the assay with leukaemia cell was less than 20 µM; with LoVo, 8.6 µM; with 22Rv1, 8.18 µM; in the assay with LNCaP, 3.66 µM; in the assay with MDA-MB-468, 1.42 µM; in the assay with MCF-7 it was 18.3 µM. Also, the IC50 was 1.43 µM with HL-60; 8.68 µM with HCT-116; 7.3 µM with PC-3; 7 µM in the assay on parental H69 cells; less than 20 µM with colon cancer cell; less than 20 µM in the assay on breast cancer cell. The IC50 with prostate cancer cell was less than 10 µM.
